Measured values taken from patent US9775833B2, “Method for the treatment of NF1- or RAS-associated disorders” (The Trustees of Dartmouth College, priority 2015, dated 2017).
Entries after “also recorded” stand apart in the source; their conditions may differ.

Experiments:
[1] = system: NF1-deficient tumor cells (U87-MG); assay: alamarBlue viability/growth assay in U87-MG cells; type: cell-based, human
Method: Cells were incubated with drug for 15 minutes-72 h. At the noted times, the drug was removed, cells were rinsed with PBS, and replaced with normal media. At 69 hours, 5 uL of alamarBlue viability assay reagent was added to each well. At 72 h, the fluorescence was measured (Ex/Em 544/590 nm) as a surrogate indicator of viability. All values were normalized to the fluorescence observed in a vehicle (DMSO) control.
Cells were incubated with drug for 3 or 7 days. 3 hours before the end of the experiment, 5 uL of alamarBlue viability assay reagent was added to each well. At the end of each timepoint, the fluorescence was measured (Ex/Em 544/590 nm) as a surrogate indicator of viability. All values were normalized to the fluorescence observed in a vehicle (DMSO) control.
Viability Assay. Cells are cultured on plastic 96-well plates. Cell viability is estimated using metabolism as a surrogate marker via the ALAMARBLUE viability/proliferation assay (AbD Serotec; Kidlington, UK) according to the protocol of the manufacturer. The modification of the ALAMARBLUE reagent to a fluorescent substrate is measured with a fluorimeter, after which fluorescent intensity is normalized as a percentage of the vehicle control. Assays are done in triplicate.
Dose Response Assays (Mammalian Cells). To perform drug sensitivity assays, U87-MG cells were plated to 96-well plates at a concentration of 5000 cells/well. After overnight incubation, medium was removed and replaced with 100 μL of medium containing 0-20 uM Compound 1 and DMSO (to normalize DMSO concentrations). In the case of the beta-mercaptoethanol and N-acetyl cysteine co-treatment assays, cells were preincubated with these compounds or a vehicle control for 2 h before being replaced with Y100+/− N-acetyl cysteine, beta-mercaptoethanol or vehicle. Cells were incubated for the noted time with a final 3-hour incubation in 5% AlamarBlue (Thermo Scientific). The plate was scanned at an Ex/Em of 544/590 nm, and fluorescence was normalized to vehicle control wells. Dose-response curves and IC50s were calculated with the Prism 6 software package (GraphPad, San Diego, Calif., USA) by performing a 4-parameter logistic regression with outlier exclusion analysis.

p62/SQSTM-1 = p62/SQSTM-1 level, western blot and immunofluorescence; type: cell-based, human; settings: U87-MG, 24 h; western blot, immunofluorescent microscopy
Method: U87-MG tumor cells were treated with compound 1 or hydroxychloroquine (an autophagy inhibitor) for 24 h or a cocktail of proteasome inhibitors (bortezomib, BTZ and MG-132) for 2 h. P62 and tubulin levels were determined by western blot.
(§1) U87-MG tumor cells were treated with Y100, hydroxychloroquine (an autophagy inhibitor) or rapamycin (an autophagy inducer) for 24 hours. LC3B-I to LC3-II conversion and tubulin levels were determined by western blot.
Western Blotting. U87-MG cells were plated at a concentration of 500,000 cells per well in a 6-well plate and allowed to adhere overnight. Cells were treated with the noted concentrations and times of controls or compound 1. After treatment, cells were harvested with trypsin, rinsed, and lysed with approximately 75 microliters RIPA buffer with protease and phosphatase inhibitors per 500,000 cells. Protein was quantified with a BCA assay kit (Pierce). 30 micrograms of protein was separated on a 4-15% SDS-PAGE gel (Bio-Rad) by SDS gel electrophoresis. Protein was transferred to a nitrocellulose membrane, blocked with 5% milk in TBST and probed with LC3B (Cell Signaling, 1:1000, overnight), p62/SQSTM-1 (Santa Cruz, 1:1000, 1 h), tubulin (Santa Cruz, 1:10000, 1 h), K63 ubiquitin (Cell Signaling, 1:1000, 1 h), K48 ubiquitin (Cell Signaling, 1:2000, 1 h) in 2% milk in TBST. […]

U87-MG cells [2] = assay: MitoSOX Red flow cytometry for mitochondrial superoxide; type: cell-based, human; settings: 24 h of treatment
Method: Flow Cytometry. To determine mitochondrial superoxide levels, 500,000 U87-MG cells/well were plated to a 6-well plate and allowed to adhere overnight. The medium was then replaced with cell culture media containing DMSO or Y100. Cells were treated for 24 hours. 30 minutes before the end of the incubation, 1 micromolar MitoSOX Red was added. At the end of the incubation, cells were rinsed with PBS and trypsinized, and then rinsed two more times. The cells were transferred to flow cytometry tubes and analyzed using a MacsQuant VYB 8-color flow cytometer. MitoSOX Red fluorescence was detected using the Y1-A (PE) channel. 30,000 events per sample were collected. Histograms were generated using the FlowJo flow cytometry analysis software package.

[3] = system: lysine 63 and lysine 48 polyubiquitin linked-proteins; assay: K63/K48 polyubiquitin western blot in U87-MG cells; type: cell-based, human; settings: 24 hours, comparable to HCQ (50 uM, 24 h) or MG132 plus bortezomib cocktail
Method: (§2) Western Blotting. U87-MG cells were plated at a concentration of 500,000 cells per well in a 6-well plate and allowed to adhere overnight. Cells were treated with the noted concentrations and times of controls or compound 1. After treatment, cells were harvested with trypsin, rinsed, and lysed with approximately 75 microliters RIPA buffer with protease and phosphatase inhibitors per 500,000 cells. Protein was quantified with a BCA assay kit (Pierce). 30 micrograms of protein was separated on a 4-15% SDS-PAGE gel (Bio-Rad) by SDS gel electrophoresis. Protein was transferred to a nitrocellulose membrane, blocked with 5% milk in TBST and probed with LC3B (Cell Signaling, 1:1000, overnight), p62/SQSTM-1 (Santa Cruz, 1:1000, 1 h), tubulin (Santa Cruz, 1:10000, 1 h), K63 ubiquitin (Cell Signaling, 1:1000, 1 h), K48 ubiquitin (Cell Signaling, 1:2000, 1 h) in 2% milk in TBST. Secondary labeling was performed with a one hour incubation in 1:20000 anti-rabbit HRP or 1:10000 anti-mouse HRP (Jackson Immunoresearch) diluted in 2% milk in TBST. Film was then exposed to ECL-coated blots (Pierce) and developed using a standard film processor.

[4] = system: lysine 63 and lysine 48 polyubiquitin linked-proteins; assay: K63/K48 polyubiquitin western blot in U251-MG cells; type: cell-based, human; settings: 24 hours, comparable to HCQ (50 uM, 24 h) or MG132 plus bortezomib cocktail
control strains = assay: Yeast growth assay, control strains (OD 600 nm); type: cell-based, Saccharomyces cerevisiae; settings: increasing concentrations, 18 hours
Method: (§3) IRA2 is a yeast homolog of human NF1. Cells were grown in the presence of increasing concentrations of compound 1 for 18 hours. The absorbance (OD 600 nm) was measured as a surrogate marker of cell growth. The assay has been described previously: see Sanchez et al., Mol. Cancer Ther. 2011 Sep.: 10(9):1740-1750.
as §3, with “Y100B” for “compound 1”

[5] = system: yeast model of NF1 deficiency (IRA2, yeast homolog of human NF1); assay: Yeast growth assay, yeast model of NF1 deficiency (OD 600 nm); type: cell-based, Saccharomyces cerevisiae; settings: increasing concentrations, 18 hours
Method: as §3
as §3, with “Y100B” for “compound 1”

U251-MG cells = assay: Mitochondrial immunofluorescence (Mitotracker Red / TOMM20) in U251-MG cells; type: cell-based, human; settings: Mitotracker Red and TOMM20
U87-MG cells [6] = assay: Mitochondrial immunofluorescence (Mitotracker Red / TOMM20) in U87-MG cells; type: cell-based, human; settings: 24 hours, Mitotracker Red and TOMM20
Method: Polarized mitochondria are labeled with Mitotracker Red, while all mitochondria are labeled with an antibody specific to the mitochondrial protein TOMM20.
Immunofluorescence. U87-MG cells were cultured on poly-D-lysine coated coverslips (Neuvitro Corporation) or poly-L-lysine coated coverslips and treated with Compound 1 (Chembridge) for 24 hours. For the last 30 minutes of treatment, cells were labeled with 100 nM Mitotracker Red (Life Technologies). After treatment and labeling, cells were rinsed with PBS. Cells were fixed in 4% methanol-free paraformaldehyde (Electron Microscopy Services) in PBS (Corning) for 10 minutes at room temperature and blocked with immunofluorescence buffer (2% [v/v] goat serum, 0.2% [v/v] Triton X-100 and 0.05% [w/v] sodium azide in PBS) at RT. TOMM20 was labeled using 1:200 rabbit anti-TOM20 (Santa Cruz) at room temperature for one hour, and cells were rinsed 3 times for 5 minutes with PBST. Secondary labeling was performed with 1:600 goat anti-rabbit F(ab′) 2 DyLight 488 at room temperature for 1 hour (Jackson Immunoresearch) diluted in IF buffer. Cells were then rinsed 2 times for five minutes with PBST and then nuclei were labeled with DAPI in PBS for 5 minutes. Coverslips were mounted on glass slides with ProLong Gold (Life Technologies). […]

LC3B-II = assay: LC3B accumulation, western blot and immunofluorescence; type: cell-based, human; settings: U87-MG, 24 hours; western blot, immunofluorescent microscopy
Method: as §1, §2

[7] = ROS scavenger co-treated for 72 hours, alamarBlue

SMILES | effect on U87-MG cells on co-treatment with N-acetyl cysteine (NAC) [1, 7] | effect on U87-MG cells on co-treatment with β-mercaptoethanol [1, 7] | effect on cell viability/growth on pretreatment and co-treatment with buthionine sulfoximine (BSO) ([1]; U87-MG, 3-day alamarBlue assay) | drug exposure time giving an irreversible effect on cell viability/growth ([1]; U87-MG, drug removed after 15 minutes-72 h, alamarBlue read at 72 h) [min] | autophagy marker p62/SQSTM-1 (P62 accumulation) (p62/SQSTM-1) | formation and/or accumulation of mitochondrial superoxide (MitoSOX Red) (U87-MG cells [2]) | accumulation of lysine 63 and lysine 48 polyubiquitin linked-proteins [3] | accumulation of lysine 63 and lysine 48 polyubiquitin linked-proteins [4] | growth of control yeast strains (absorbance OD 600 nm) (control strains) | growth / cell death of NF1-deficient yeast (absorbance OD 600 nm) [5] | formation of polarized mitochondrial hotspots (U251-MG cells) | formation of polarized mitochondrial hotspots (U87-MG cells [6]) | LC3B accumulation (LC3B-I to LC3-II conversion) (LC3B-II) | viability and/or growth of U87 MG cells (alamarBlue) ([1]; incubated with drug for 3 or 7 days)
CCOC(=O)c1ccc2c3c(onc13)-c1ccccc1C2=O [compound 1] | abrogate the effect of compound 1 | abrogate the effect of compound 1 | potentiates the effect of compound 1 on cell viability/growth | ≤ 15 | modulates the autophagy marker and ubiquitin binding scaffold protein p62/SQSTM-1; also recorded: induces P62 accumulation | induces the formation and/or accumulation of mitochondrial superoxide | induces the accumulation of lysine 63 and lysine 48 polyubiquitin linked-proteins | induces the accumulation of lysine 63 and lysine 48 polyubiquitin linked-proteins | without affecting the control strains | selectively inhibits growth or induces cell death | induces the formation of polarized mitochondrial hotspots | induces the formation of polarized mitochondrial hotspots | not LC3B accumulation | –
COC(=O)c1ccc2c3c(onc13)-c1ccccc1C2=O [compound 2] | – | – | – | – | – | – | – | – | without affecting the control strains | selectively inhibits growth or induces cell death | – | – | – | reduces viability and/or growth
CCN(CCO)CCCC(C)Nc1ccnc2cc(Cl)ccc12 (stereo not drawn) [hydroxychloroquine] | – | – | – | – | induces P62 accumulation | – | – | – | – | – | – | – | induces accumulation of the autophagy marker LC3B-II | –
